{
  "source": "patent US20190134034A1",
  "about": "“Method of Treating Liver Cancer” (ASLAN Pharmaceuticals Pte. Ltd., priority 2016, published 2019)",
  "key": {"[1]": {"tested_on": "phosphorylation of HER1-3, RAS/RAF/MEK/MAPK, p70S6K, S6 ribosomal, 4EBP1, Cdc-2 and retinoblastoma", "test": "Western blot analysis of tumour lysates from HCC29-0909A xenograft (pharmacodynamics)", "format": "in vivo, SCID mice", "details": "Western blot of tumour lysates after two and fourteen days of treatment"}, "MAPK pathway": {"tested_on": "MAPK pathway", "test": "Pharmacodynamics in HCC01-0708 PDX model", "format": "in vivo", "details": "after twelve days of treatment"}, "[2]": {"tested_on": "HCC29-0909A HCC patient-derived xenograft (co-expression of HER1, HER2 and HER3)", "test": "HCC patient-derived xenograft model HCC29-0909A in SCID mice, tumour volume", "format": "in vivo", "details": "HCC29-0909A PDX in SCID mice", "method": "A HCC patient-derived xenograft model in SCID mice (HCC29-0909A) with co-expression of HER1, HER2 and HER3 receptors [Cancer Res Aug. […] Dosing with varlitinib commenced when the tumours reached the size of approximately 100-150 mm^3. Bi-dimensional measurements are performed twice a week and tumour volumes are calculated based on the following formula: Tumour volume=[(Length)×(Width^2)×(p/6)].\nGroups of mice were dosed as follows:\nGroup 1 control group received vehicle only\nGroup 2 received 25 mg/Kg of ASLAN001 BID (twice daily),\nGroup 3 received 50 mg/Kg of ASLAN001 BID (twice daily), and\nGroup 4 received 100 mg/Kg of ASLAN001 BID (twice daily)."}, "PLC/PRF/5 cells": {"tested_on": "PLC/PRF/5 cells", "test": "Apoptosis (AnnexinV) profile of PLC/PRF/5 cells", "format": "cell-based", "details": "48 hour culture, increasing concentration", "method": "(§1) An in vitro experiment was conducted to investigate whether varlitinib induced apoptosis in HCC cell lines. HCC cells were grown in cell culture medium with 10% FBS and with varying concentrations of varlitinib. Apoptosis profiles were analysed at 24 hour and 48 hour timepoints, using Muse Annexin V & Dead Cell Assay kit and Muse Cell Analyser. Early apoptosis cells (identified as Annexin V-PE positive and Dead Cell Marker negative) were measured and plotted."}, "[3]": {"tested_on": "HCC01-0708 HER2/HER3 co-expressing PDX model of HCC", "test": "HCC patient-derived xenograft model HCC01-0708, tumour volume", "format": "in vivo", "details": "HCC01-0708 PDX; 25, 50 or 100 mg/kg BID"}, "HCC cell lines": {"tested_on": "HCC cell lines", "test": "Early apoptosis in HCC cell lines (Muse Annexin V & Dead Cell Assay)", "format": "cell-based", "details": "all HCC cell lines tested; 48 hours of incubation", "method": "as §1"}, "Huh7-SorR cells": {"tested_on": "Huh7-SorR cells", "test": "Early apoptosis in sorafenib resistant cells (Muse Annexin V & Dead Cell Assay)", "format": "cell-based", "details": "high dose of varlitinib", "method": "as §1"}},
  "note": "Entries after “also recorded” stand apart in the source; their conditions may differ.",
  "data": [
    {"compound": "C[C@@H]1COC(Nc2ccc3ncnc(Nc4ccc(OCc5nccs5)c(Cl)c4)c3c2)=N1", "note": "[varlitinib, (R)-N4-[3-Chloro-4-(thiazol-2-ylmethoxy)-phenyl]-N6-(4-methyl-4,5,-dihydro-oxazol-2-yl)-quinazoline-4,6-diamine]", "values": [
      {"measurement": "phosphorylation of HER1-3, RAS/RAF/MEK/MAPK, p70S6K, S6 ribosomal, 4EBP1, Cdc-2 and retinoblastoma", "setting": "[1]", "value": "strongly inhibited"},
      {"measurement": "inhibition of the MAPK pathway", "setting": "MAPK pathway", "value": "robust inhibition"},
      {"measurement": "tumor regression", "setting": "[2]; 100 mg/kg BID", "value": "complete tumor regression"},
      {"measurement": "tumour growth inhibition (tumour volume)", "setting": "[2]; 25, 50 or 100 mg/kg BID", "value": "potently inhibited tumour growth; also recorded: dose-dependent tumour volume growth inhibition"},
      {"measurement": "percentage of apoptotic cells", "setting": "PLC/PRF/5 cells", "value": "increase in percentage of apoptotic cells correlates with increasing varlitinib concentration"},
      {"measurement": "tumour growth inhibition (tumour volume)", "setting": "[3]", "value": "inhibited tumour growth; also recorded: dose-dependent tumour volume growth inhibition"},
      {"measurement": "induction of early apoptosis (Annexin V-PE positive, Dead Cell Marker negative)", "setting": "HCC cell lines", "value": "able to induce early apoptosis"},
      {"measurement": "early apoptosis", "setting": "Huh7-SorR cells", "value": "~70", "unit": "%"}
    ]}
  ]
}
